From US10206937B2, “Boronic acid derivatives and therapeutic uses thereof” (Qpex Biopharma, Inc., priority 2014, dated 2019)
pIC50, pKi: −log10 of the molar value.

Tests used:
NDM-1 [1] = target: T1, NDM-1 (Klebsiella pneumoniae, UniProt C7C422); assay: biochemical
VIM-1 = target: T2, VIM-1 (Pseudomonas aeruginosa, UniProt A0A0F7KYQ8); assay: biochemical; conditions: cleavage of nitrocefin (200 uM) by VIM-1 supernatant
T2 construct: made in house; host or cells: ECM6711 strain carrying pUCP24-VIM-1 plasmid; culture supernatant used unpurified

OXA-48 = OXA-48 (Klebsiella pneumoniae, UniProt Q6XEC0); assay: Inhibition of purified class D carbapenemase OXA-48 (Ki, carbapenem substrates); assay type: biochemical; conditions: purified OXA-48, substrate biapenem; read-out: Ki OXA-48, Biapenem
[2] = target: T3, purified class A, C and D enzymes (UniProt P0AD64, L31Q/G234S/E235K, species not given); assay type: biochemical; conditions: read-out: Ki (SHV-12, NCF); purified SHV-12; nitrocefin reporter substrate
T3 construct: Ki (SHV-12, NCF); other: purified SHV-12; nitrocefin reporter substrate
T3 sequence (P0AD64 1-286 L31Q/G234S/E235K): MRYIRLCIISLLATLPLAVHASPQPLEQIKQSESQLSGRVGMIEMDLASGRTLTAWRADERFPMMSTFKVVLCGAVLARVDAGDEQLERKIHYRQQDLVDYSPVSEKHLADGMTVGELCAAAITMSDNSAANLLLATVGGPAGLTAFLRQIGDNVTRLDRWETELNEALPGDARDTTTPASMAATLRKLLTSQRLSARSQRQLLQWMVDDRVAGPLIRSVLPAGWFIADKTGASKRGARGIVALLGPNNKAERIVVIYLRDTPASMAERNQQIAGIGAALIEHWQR

[3] = target: T4, purified class A, C and D enzymes (UniProt Q6XEC0); assay type: biochemical; conditions: read-out: Ki (OXA-48, NCF); purified OXA-48; nitrocefin reporter substrate
T4 construct: rows headed: Ki (OXA-48, NCF); other: purified OXA-48; nitrocefin reporter substrate

[4] = target: T5, purified class A, C and D enzymes (UniProt Q9F663); assay type: biochemical; conditions: read-out: Ki (KPC-2, NCF); purified KPC-2; nitrocefin reporter substrate
T5 construct: rows headed: Ki (KPC-2, NCF); other: purified KPC-2; nitrocefin reporter substrate

NDM-1 [5] = target: T1, NDM-1; assay: Inhibition of purified class B carbapenemase NDM-1 (Ki, imipenem substrate); assay type: biochemical; conditions: NDM-1, substrate imipenem; read-out: Ki NDM-1, Imipenem
[6] = target: purified class A, C and D enzymes (Enterobacter cloacae, UniProt P05364); assay type: biochemical; conditions: purified P99/AmpC of ECL; nitrocefin reporter substrate
[7] = target: purified class A, C and D enzymes (Escherichia coli, UniProt Q9L5C7); assay type: biochemical; conditions: purified CTX-M-14; nitrocefin reporter substrate
[8] = test system: strains of Enterobacteriaceae producing various carbapenemases (class A, D and B; 169 strains); assay: Meropenem or tebipenem potentiation by Compounds 97 or 62 (MIC); assay type: cell-based; conditions: Compound 97 at a fixed concentration of 8 μg/ml
Procedure: The largest panel of clinical isolates expressing class A, D and B carbapenemases alone or in combination with other beta-lactamases (169 strains) was used to evaluate carbapenem potentiation activity of Compounds 97 and 62. MIC for meropenem and tebipenem of these strains were determined either alone or in the presence of Compounds 97 or 62, respectively, at a fixed concentration of 8 μg/ml in the growth media.

[9] = cleavage of imipenem (100 uM) by NDM-1, read-out: Ki, Imipenem

T1 sequence (C7C422 29-270, looked up, species assumed): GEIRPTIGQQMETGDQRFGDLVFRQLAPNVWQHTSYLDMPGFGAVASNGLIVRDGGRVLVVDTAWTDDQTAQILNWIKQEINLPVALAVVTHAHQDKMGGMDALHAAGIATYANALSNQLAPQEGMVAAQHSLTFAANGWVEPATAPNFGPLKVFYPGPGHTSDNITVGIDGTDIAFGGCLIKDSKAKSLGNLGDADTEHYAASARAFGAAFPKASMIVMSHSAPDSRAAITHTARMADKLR
Sequence of purified class A, C and D enzymes (Enterobacter cloacae, UniProt P05364) (P05364 21-381): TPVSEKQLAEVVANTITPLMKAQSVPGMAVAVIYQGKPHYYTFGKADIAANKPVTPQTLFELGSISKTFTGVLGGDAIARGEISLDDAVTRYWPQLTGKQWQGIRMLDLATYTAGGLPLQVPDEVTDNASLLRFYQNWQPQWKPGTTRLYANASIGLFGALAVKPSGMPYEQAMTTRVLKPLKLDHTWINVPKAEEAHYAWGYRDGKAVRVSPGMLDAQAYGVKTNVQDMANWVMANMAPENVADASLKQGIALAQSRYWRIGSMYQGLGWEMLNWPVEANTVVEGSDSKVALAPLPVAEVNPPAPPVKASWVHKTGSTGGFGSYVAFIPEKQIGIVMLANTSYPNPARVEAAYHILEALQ
Sequence of purified class A, C and D enzymes (Escherichia coli, UniProt Q9L5C7) (Q9L5C7 entry or part of it): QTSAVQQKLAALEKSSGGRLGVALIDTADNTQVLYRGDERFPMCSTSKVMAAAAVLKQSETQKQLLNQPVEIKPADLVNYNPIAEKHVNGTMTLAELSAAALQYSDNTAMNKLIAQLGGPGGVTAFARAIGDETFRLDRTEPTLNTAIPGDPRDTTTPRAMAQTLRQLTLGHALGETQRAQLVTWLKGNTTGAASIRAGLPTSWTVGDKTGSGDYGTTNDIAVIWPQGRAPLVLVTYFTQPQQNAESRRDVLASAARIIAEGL
Sequence of OXA-48 (Q6XEC0 23-265, looked up): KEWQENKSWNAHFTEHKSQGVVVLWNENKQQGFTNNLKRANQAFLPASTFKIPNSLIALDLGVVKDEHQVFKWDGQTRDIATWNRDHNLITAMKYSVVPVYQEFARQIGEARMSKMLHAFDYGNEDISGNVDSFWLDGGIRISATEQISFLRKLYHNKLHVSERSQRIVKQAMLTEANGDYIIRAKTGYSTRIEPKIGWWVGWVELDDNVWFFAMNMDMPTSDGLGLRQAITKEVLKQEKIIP

| SMILES | pKi (NDM-1 [1]; [9]) | pIC50 (VIM-1) | pKi (OXA-48) | pKi [2] | pKi [3] | pKi [4] | pKi (NDM-1 [1]; cleavage of biapenem (100 uM) by NDM-1, read-out: Ki, Biapenem) | pKi (NDM-1 [1]; cleavage of meropenem (100 uM) by NDM-1, read-out: Ki, Meropenem) | pKi (NDM-1 [5]) | Ki (P99/AmpC of ECL, NCF) [6] | Ki (CTX-M-14, NCF) [7] | meropenem MIC [8] |
| --- | --- | --- | --- | --- | --- | --- | --- | --- | --- | --- | --- | --- |
| CS[C@H]1Cc2cccc(C(=O)O)c2OB1O [Compound 16, (R)-2-hydroxy-3-(methylthio)-3,4-dihydro-2H-benzo[e][1,2]oxaborinine-8-carboxylic acid] | > 8.00 | > 6.00 | > 8.00 | 6.00 to 7.00 | > 7.00 | > 7.00 | – | – | – | – | – | – |
| O=C(O)c1cccc2c1OB(O)[C@@H](OC1CNC1)C2 [Compound 18, (R)-3-(azetidin-3-yloxy)-2-hydroxy-3,4-dihydro-2H-benzo[e][1,2]oxaborinine-8-carboxylic acid] | 7.00 to 8.00 | ≤ 6.00 | > 8.00 | > 7.00 | > 7.00 | 6.00 to 7.00 | > 8.00 | > 8.00 | 7.00 to 8.00 | – | – | – |
| COc1ccc2c(c1C(=O)O)OB(O)[C@@H](Sc1nnc(NCCN)s1)C2 [Compound 97, (3R)-3-[[5-(2-aminoethylamino)-1,3,4-thiadiazol-2-yl]sulfanyl]-2-hydroxy-7-methoxy-3,4-dihydro-1,2-benzoxaborinine-8-carboxylic acid] | > 8.00 | > 6.00 | – | > 7.00 | > 7.00 | 6.00 to 7.00 | – | – | > 8.00 | Y (0.1 μM to 1 μM) | X (Less than 0.1 μM) | significantly reduced |
| COc1ccc2c(c1C(=O)O)OB(O)[C@@H](Sc1nnc(SC(CN)CN)s1)C2 [Compound 109, (3R)-3-[[5-[2-amino-1-(aminomethyl)ethyl]sulfanyl-1,3,4-thiadiazol-2-yl]sulfanyl]-2-hydroxy-7-methoxy-3,4-dihydro-1,2-benzoxaborinine-8-carboxylic acid] | > 8.00 | > 6.00 | – | > 7.00 | > 7.00 | 6.00 to 7.00 | – | – | > 8.00 | Y (0.1 μM to 1 μM) | X (Less than 0.1 μM) | – |
| COc1ccc2c(c1C(=O)O)OB(O)[C@@H](Sc1nnc(SCCN3CCOCC3)s1)C2 [Compound 110, (3R)-2-hydroxy-7-methoxy-3-[[5-(2-morpholinoethylsulfanyl)-1,3,4-thiadiazol-2-yl]sulfanyl]-3,4-dihydro-1,2-benzoxaborinine-8-carboxylic acid] | < 7.00 | > 6.00 | – | > 7.00 | > 7.00 | > 7.00 | – | – | < 7.00 | Y (0.1 μM to 1 μM) | X (Less than 0.1 μM) | – |
| COc1ccc2c(c1C(=O)O)OB(O)[C@@H](Sc1nnc(Sc3nnc(N)s3)s1)C2 [Compound 111, (3R)-3-[[5-[(5-amino-1,3,4-thiadiazol-2-yl)sulfanyl]-1,3,4-thiadiazol-2-yl]sulfanyl]-2-hydroxy-7-methoxy-3,4-dihydro-1,2-benzoxaborinine-8-carboxylic acid] | < 7.00 | > 6.00 | – | > 7.00 | < 6.00 | 6.00 to 7.00 | – | – | < 7.00 | Y (0.1 μM to 1 μM) | X (Less than 0.1 μM) | – |
| COc1ccc2c(c1C(=O)O)OB(O)[C@@H](Sc1nnc(SC3CCNCC3)s1)C2 [Compound 112, (3R)-2-hydroxy-7-methoxy-3-[[5-(4-piperidylsulfanyl)-1,3,4-thiadiazol-2-yl]sulfanyl]-3,4-dihydro-1,2-benzoxaborinine-8-carboxylic acid] | 7.00 to 8.00 | > 6.00 | – | > 7.00 | > 7.00 | > 7.00 | – | – | 7.00 to 8.00 | X (Less than 0.1 μM) | X (Less than 0.1 μM) | – |
| COc1ccc2c(c1C(=O)O)OB(O)[C@@H](Sc1nnc(SCCCN)s1)C2 [Compound 113, (3R)-3-[[5-(3-aminopropylsulfanyl)-1,3,4-thiadiazol-2-yl]sulfanyl]-2-hydroxy-7-methoxy-3,4-dihydro-1,2-benzoxaborinine-8-carboxylic acid] | > 8.00 | > 6.00 | – | > 7.00 | > 7.00 | > 7.00 | – | – | > 8.00 | X (Less than 0.1 μM) | X (Less than 0.1 μM) | – |
| COc1c(F)cc2c(c1C(=O)O)OB(O)[C@@H](Sc1nnc(N)s1)C2 [Compound 114, (3R)-3-[(5-amino-1,3,4-thiadiazol-2-yl)sulfanyl]-6-fluoro-2-hydroxy-7-methoxy-3,4-dihydro-1,2-benzoxaborinine-8-carboxylic acid] | 7.00 to 8.00 | > 6.00 | – | > 7.00 | > 7.00 | 6.00 to 7.00 | – | – | 7.00 to 8.00 | Y (0.1 μM to 1 μM) | X (Less than 0.1 μM) | – |
| Nc1nnc(S[C@H]2Cc3cc4nc[nH]c4c(C(=O)O)c3OB2O)s1 [Compound 115, (3R)-3-[(5-amino-1,3,4-thiadiazol-2-yl)sulfanyl]-2-hydroxy-4,8-dihydro-3H-oxaborinino[6,5-f]benzimidazole-9-carboxylic acid] | < 7.00 | > 6.00 | – | > 7.00 | > 7.00 | 6.00 to 7.00 | – | – | < 7.00 | X (Less than 0.1 μM) | X (Less than 0.1 μM) | – |
| NCCSc1nnc(S[C@H]2Cc3cccc(C(=O)O)c3OB2O)s1 [Compound 116, (3R)-3-[[5-(2-aminoethylsulfanyl)-1,3,4-thiadiazol-2-yl]sulfanyl]-2-hydroxy-3,4-dihydro-1,2-benzoxaborinine-8-carboxylic acid] | > 8.00 | > 6.00 | – | > 7.00 | > 7.00 | > 7.00 | – | – | > 8.00 | X (Less than 0.1 μM) | X (Less than 0.1 μM) | – |
| COc1ccc2c(c1C(=O)O)OB(O)[C@@H](Sc1nnc(OCCN)s1)C2 [Compound 117, (3R)-3-[[5-(2-aminoethoxy)-1,3,4-thiadiazol-2-yl]sulfanyl]-2-hydroxy-7-methoxy-3,4-dihydro-1,2-benzoxaborinine-8-carboxylic acid] | > 8.00 | > 6.00 | – | > 7.00 | > 7.00 | 6.00 to 7.00 | – | – | > 8.00 | Y (0.1 μM to 1 μM) | X (Less than 0.1 μM) | – |
| CCOc1ccc2c(c1C(=O)O)OB(O)[C@@H](Sc1nnc(NC3CNC3)s1)C2 [Compound 118, (3R)-3-[[5-(azetidin-3-ylamino)-1,3,4-thiadiazol-2-yl]sulfanyl]-7-ethoxy-2-hydroxy-3,4-dihydro-1,2-benzoxaborinine-8-carboxylic acid] | < 7.00 | > 6.00 | – | > 7.00 | > 7.00 | 6.00 to 7.00 | – | – | < 7.00 | Y (0.1 μM to 1 μM) | X (Less than 0.1 μM) | – |
| Nc1nnc(S[C@H]2Cc3ccc(-n4ccnn4)c(C(=O)O)c3OB2O)s1 [Compound 119, (3R)-3-[(5-amino-1,3,4-thiadiazol-2-yl)sulfanyl]-2-hydroxy-7-(triazol-1-yl)-3,4-dihydro-1,2-benzoxaborinine-8-carboxylic acid] | > 8.00 | > 6.00 | – | 6.00 to 7.00 | > 7.00 | < 6.00 | – | – | > 8.00 | Y (0.1 μM to 1 μM) | X (Less than 0.1 μM) | – |
